Measurements from ChEMBL document CHEMBL1201862, “PubChem BioAssay data set” (2004).
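Grown in 96-well plates, cells were treated for 48 hours with each compound at five concentrations. Insufficient inhibition: endpoint recorded as highest concentration tested. GI50 = concentration required for 50% inhibition of growth.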 Active and inactive are the calls of the source. No stated cut-off is given here; in the data, active = GI50 up to about 1.1 µM and inactive = higher.

Key:
Test in all cases: DTP human tumour cell line panel, 48 h
SF-539 = system: SF-539
OVCAR-8 = system: OVCAR-8
SK-MEL-5 = system: SK-MEL-5
NCI-H23 = system: NCI-H23
HCT-116 = system: HCT-116
ACHN = system: ACHN
SN12C = system: SN12C
786-0 = system: 786-0
OVCAR-3 = system: OVCAR-3
MOLT-4 = system: MOLT-4
HOP-62 = system: HOP-62
OVCAR-4 = system: OVCAR-4
SNB-19 = system: SNB-19
HCC 2998 = system: HCC 2998
COLO 205 = system: COLO 205
SF-295 = system: SF-295
HOP-92 = system: HOP-92
A498 = system: A498

| SMILES | GI50 (SF-539) | GI50 (OVCAR-8) | GI50 (SK-MEL-5) | GI50 (NCI-H23) | GI50 (HCT-116) | GI50 (ACHN) | GI50 (SN12C) | GI50 (786-0) | GI50 (OVCAR-3) | GI50 (MOLT-4) | GI50 (HOP-62) | GI50 (OVCAR-4) | GI50 (SNB-19) | GI50 (HCC 2998) | GI50 (COLO 205) | GI50 (SF-295) | GI50 (HOP-92) | GI50 (A498) |
| --- | --- | --- | --- | --- | --- | --- | --- | --- | --- | --- | --- | --- | --- | --- | --- | --- | --- | --- |
| CC(=O)Nc1ccc(C(=O)N2N=C(C)/C(=C\c3c(O)ccc4ccccc34)C2=O)cc1 | 56.4 µM (inactive) | 88.1 µM (inactive) | 35.4 µM (inactive) | > 100 µM (inactive) | 93.5 µM (inactive) | 30.6 µM (inactive) | 48.8 µM (inactive) | > 100 µM (inactive) | 91.8 µM (inactive) | 31.7 µM (inactive) | > 100 µM (inactive) | > 100 µM (inactive) | > 100 µM (inactive) | > 100 µM (inactive) | > 100 µM (inactive) | 40.5 µM (inactive) |  |  |
| O=S(=O)(N/N=C/c1ccc(/C=N/NS(=O)(=O)c2ccccc2)cc1)c1ccccc1 | 29 µM (inactive) | 42 µM (inactive) | 39.4 µM (inactive) | 35.2 µM (inactive) | 57.3 µM (inactive) | 55.8 µM (inactive) | 42.6 µM (inactive) | 50.6 µM (inactive) | 30.7 µM (inactive) | 21.5 µM (inactive) | 44.9 µM (inactive) | 63.7 µM (inactive) |  | > 100 µM (inactive) | 21.4 µM (inactive) | 15.5 µM (inactive) | 31.8 µM (inactive) | 68.5 µM (inactive) |
| O=S1(=O)OCCOS(=O)(=O)C1Cc1ccccc1 | 26.5 µM (inactive) | 70.1 µM (inactive) |  | 64.1 µM (inactive) | 48.4 µM (inactive) | 51.5 µM (inactive) | 46.1 µM (inactive) | 32.5 µM (inactive) | 20.8 µM (inactive) | 25.3 µM (inactive) | 52.8 µM (inactive) | 43.5 µM (inactive) | 70.3 µM (inactive) | 20 µM (inactive) | 19.1 µM (inactive) | 53.8 µM (inactive) | 70.6 µM (inactive) | 36.8 µM (inactive) |
| Cc1cc(C)c(C2=NO[C@@H]3C(=O)N(c4ccc(Cc5ccc(N6C(=O)[C@H]7C(c8c(C)cc(C)cc8C)=NO[C@H]7C6=O)cc5)cc4)C(=O)[C@H]23)c(C)c1 | > 100 µM (inactive) | > 100 µM (inactive) | > 100 µM (inactive) | > 100 µM (inactive) |  |  | > 100 µM (inactive) | > 100 µM (inactive) | > 100 µM (inactive) | > 100 µM (inactive) | > 100 µM (inactive) | > 100 µM (inactive) |  | > 100 µM (inactive) | > 100 µM (inactive) | > 100 µM (inactive) | > 100 µM (inactive) | > 100 µM (inactive) |
| CCOP(=O)(OCC)C1C(=O)O[C@H]2CCCC[C@@H]12 (some centres not stated) | > 100 µM (inactive) | > 100 µM (inactive) | > 100 µM (inactive) | > 100 µM (inactive) | > 100 µM (inactive) | > 100 µM (inactive) | > 100 µM (inactive) | > 100 µM (inactive) | > 100 µM (inactive) | > 100 µM (inactive) | > 100 µM (inactive) | > 100 µM (inactive) | > 100 µM (inactive) | > 100 µM (inactive) | > 100 µM (inactive) | > 100 µM (inactive) |  | > 100 µM (inactive) |
| Cc1cc(C)n(-c2c(O)ccc(O)c2-n2nc(C)cc2C)n1 | > 100 µM (inactive) | > 100 µM (inactive) | > 100 µM (inactive) | > 100 µM (inactive) |  | > 100 µM (inactive) | > 100 µM (inactive) | > 100 µM (inactive) | > 100 µM (inactive) | > 100 µM (inactive) | > 100 µM (inactive) | > 100 µM (inactive) | > 100 µM (inactive) | > 100 µM (inactive) | > 100 µM (inactive) | 81.3 µM (inactive) | > 100 µM (inactive) | > 100 µM (inactive) |
| CN1CCCc2nc3ccccc3n2C1 | > 100 µM (inactive) | > 100 µM (inactive) | > 100 µM (inactive) | > 100 µM (inactive) | > 100 µM (inactive) | > 100 µM (inactive) | > 100 µM (inactive) | > 100 µM (inactive) | > 100 µM (inactive) | > 100 µM (inactive) | > 100 µM (inactive) | > 100 µM (inactive) | > 100 µM (inactive) |  | > 100 µM (inactive) | > 100 µM (inactive) | > 100 µM (inactive) | > 100 µM (inactive) |
| CC1=NC=C(O)c2ccccc2O1 | > 100 µM (inactive) | > 100 µM (inactive) |  | > 100 µM (inactive) | > 100 µM (inactive) | > 100 µM (inactive) | > 100 µM (inactive) | > 100 µM (inactive) | > 100 µM (inactive) | > 100 µM (inactive) | > 100 µM (inactive) | > 100 µM (inactive) | > 100 µM (inactive) | > 100 µM (inactive) | > 100 µM (inactive) | 45 µM (inactive) | > 100 µM (inactive) | > 100 µM (inactive) |
| CCOc1ccccc1N1C(=O)C(=O)C(c2nc3ccccc3s2)C(=O)C1=O | > 100 µM (inactive) | 41.5 µM (inactive) |  | > 100 µM (inactive) | 35.8 µM (inactive) | 5.86 µM (inactive) | 79.4 µM (inactive) | 5.36 µM (inactive) | 17.4 µM (inactive) |  | 46.8 µM (inactive) | 3.48 µM (inactive) | 56.5 µM (inactive) | > 100 µM (inactive) | > 100 µM (inactive) | 41.7 µM (inactive) | 36.2 µM (inactive) | 16.6 µM (inactive) |
| CC1=CC(N2C(=O)C(C)=CC2O)NC1=O (configuration not stated) | > 100 µM (inactive) | > 100 µM (inactive) |  | > 100 µM (inactive) | > 100 µM (inactive) |  | > 100 µM (inactive) | > 100 µM (inactive) | > 100 µM (inactive) |  | > 100 µM (inactive) | > 100 µM (inactive) | > 100 µM (inactive) | > 100 µM (inactive) | > 100 µM (inactive) | > 100 µM (inactive) | > 100 µM (inactive) |  |
| CCSc1[nH]c(/N=C(/NC(=O)c2ccccc2)NC(C)C)c(C(N)=O)c1C(N)=O |  | > 10 µM (inactive) | > 10 µM (inactive) | > 10 µM (inactive) |  |  | > 10 µM (inactive) | > 10 µM (inactive) |  | > 10 µM (inactive) |  | > 10 µM (inactive) |  | > 10 µM (inactive) | > 10 µM (inactive) | > 10 µM (inactive) | > 10 µM (inactive) |  |
| Cc1cc(N(CCC#N)CCC#N)ccc1/C=C1/CN(N2C(=O)/C(=C/c3ccc(N(CCC#N)CCC#N)cc3C)N=C2c2ccccc2)C(c2ccccc2)=N1 | 99.5 µM (inactive) | > 100 µM (inactive) | > 100 µM (inactive) | 42.8 µM (inactive) | > 100 µM (inactive) | > 100 µM (inactive) | > 100 µM (inactive) | 54.3 µM (inactive) | > 100 µM (inactive) | > 100 µM (inactive) | 34.6 µM (inactive) | > 100 µM (inactive) | 41 µM (inactive) | > 100 µM (inactive) | > 100 µM (inactive) | 48.8 µM (inactive) | 44.6 µM (inactive) | > 100 µM (inactive) |
| O=c1/c(=C/c2ccccc2O)sc2nc3ccccc3n12 | 35.5 µM (inactive) | 45 µM (inactive) | 30.7 µM (inactive) | 38.7 µM (inactive) | 47.3 µM (inactive) | 45.6 µM (inactive) | 33.9 µM (inactive) | 53.2 µM (inactive) | 29.7 µM (inactive) | 18.1 µM (inactive) |  | 80.4 µM (inactive) | 80.7 µM (inactive) | 55.8 µM (inactive) |  | 34.3 µM (inactive) | 24.4 µM (inactive) | 49.4 µM (inactive) |
| O=c1nc(/C=C/c2ccccc2Cl)cc2n1CCN2CCO | > 100 µM (inactive) | > 100 µM (inactive) |  |  | > 100 µM (inactive) | > 100 µM (inactive) | > 100 µM (inactive) | > 100 µM (inactive) | 28.6 µM (inactive) | 75.9 µM (inactive) | > 100 µM (inactive) | 80.2 µM (inactive) | < 0.01 µM (active) |  | > 100 µM (inactive) | > 100 µM (inactive) | > 100 µM (inactive) |  |
| Brc1ccc2ns[s+]c2c1 | 4.29 µM (inactive) | > 43.9 µM (inactive) |  | 20.9 µM (inactive) | 2.7 µM (inactive) | 0.897 µM (active) | 14 µM (inactive) | 98.2 µM (inactive) | 29.1 µM (inactive) | 4.65 µM (inactive) | 5.05 µM (inactive) | > 20.9 µM (inactive) | 29.9 µM (inactive) | 5.25 µM (inactive) | 4.91 µM (inactive) | 4.46 µM (inactive) | 6.73 µM (inactive) | > 100 µM (inactive) |
| Cc1cc(CC(=O)NCCO)n(CCO)c(=O)c1 | > 100 µM (inactive) | > 100 µM (inactive) | > 100 µM (inactive) | > 100 µM (inactive) | > 100 µM (inactive) | > 100 µM (inactive) | > 100 µM (inactive) | > 100 µM (inactive) | > 100 µM (inactive) | > 100 µM (inactive) | > 100 µM (inactive) | > 100 µM (inactive) | > 100 µM (inactive) | > 100 µM (inactive) | > 100 µM (inactive) | > 100 µM (inactive) | > 100 µM (inactive) |  |
| Cn1c(=O)nc2n(-c3ccc(F)c(F)c3)c3ccccc3nc-2c1=O | 27.1 µM (inactive) | 13.2 µM (inactive) | 8.18 µM (inactive) | 10.8 µM (inactive) | 13.2 µM (inactive) | 8.79 µM (inactive) | 17.6 µM (inactive) | 32.7 µM (inactive) | 3.13 µM (inactive) |  | 44.2 µM (inactive) | 8.83 µM (inactive) | 15.7 µM (inactive) | 4.89 µM (inactive) | 4.08 µM (inactive) | 14.3 µM (inactive) |  | 42.9 µM (inactive) |
